Ki and IC50 data for 18 compounds are collected here from patent publication US8129366B2, “VLA-4 inhibitory drug” (Daiichi Sankyo Company, Limited, priority 2005, dated 2012).

In the test the target is T1, hα4 and β1 integrins (Homo sapiens, UniProt P05556+P13612).
T1 construct: expressed in transfected cells; host or cells: CHO cells
The experiment in a line: In vitro inhibition of binding between CHO cells expressing hα4 and β1 integrins and Eu3+-hVCAM-1 D1D7-IgG. As to conditions: for Ki: CHO cells expressing hα4 and β1 integrins, Eu3+-hVCAM-1 D1D7-IgG ligand, without HSA; for IC50: in the presence of 3% human serum albumin (HSA final concentration 3%). Put shortly: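 Bound europium-labelled VCAM-1 D1D7-IgG on α4β1-expressing CHO cells was measured by time-resolved fluorescence after washing at 4 °C. Ligand (2 nM working dilution) and test compound, with or without 3% final HSA, were co-incubated for 1 h at room temperature in Mn²⁺-containing HEPES buffer, pH 7.5. IC50 came from % binding inhibition; Ki was calculated from ligand concentration and Scatchard Kd.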

T1 sequence (P13612 34-1032): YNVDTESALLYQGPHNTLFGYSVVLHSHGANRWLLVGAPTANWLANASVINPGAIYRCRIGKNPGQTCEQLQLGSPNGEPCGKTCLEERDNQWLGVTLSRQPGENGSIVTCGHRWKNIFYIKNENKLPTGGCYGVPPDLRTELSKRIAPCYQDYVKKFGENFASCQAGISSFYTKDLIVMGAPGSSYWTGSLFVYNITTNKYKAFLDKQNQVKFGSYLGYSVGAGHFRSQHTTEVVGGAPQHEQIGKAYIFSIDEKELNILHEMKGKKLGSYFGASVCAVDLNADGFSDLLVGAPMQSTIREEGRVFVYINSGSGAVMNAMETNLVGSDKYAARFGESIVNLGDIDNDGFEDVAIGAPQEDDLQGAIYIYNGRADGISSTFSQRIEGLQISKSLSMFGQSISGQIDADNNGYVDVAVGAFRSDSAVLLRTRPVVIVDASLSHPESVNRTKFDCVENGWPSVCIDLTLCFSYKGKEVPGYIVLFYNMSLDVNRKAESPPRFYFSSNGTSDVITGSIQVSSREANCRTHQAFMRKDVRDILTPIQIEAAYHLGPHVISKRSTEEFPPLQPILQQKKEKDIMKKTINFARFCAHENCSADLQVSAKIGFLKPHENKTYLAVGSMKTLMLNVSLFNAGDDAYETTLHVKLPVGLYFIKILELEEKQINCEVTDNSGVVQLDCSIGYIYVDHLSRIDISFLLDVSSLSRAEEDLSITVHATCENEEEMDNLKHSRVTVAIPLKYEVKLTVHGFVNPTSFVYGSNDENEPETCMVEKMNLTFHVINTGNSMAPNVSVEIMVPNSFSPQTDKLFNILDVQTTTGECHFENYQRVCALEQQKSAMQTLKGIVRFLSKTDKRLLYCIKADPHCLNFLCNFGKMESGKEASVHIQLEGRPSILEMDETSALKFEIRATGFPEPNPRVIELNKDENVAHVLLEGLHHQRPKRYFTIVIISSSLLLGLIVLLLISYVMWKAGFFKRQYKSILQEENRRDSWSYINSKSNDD
T1 sequence (P05556 21-798): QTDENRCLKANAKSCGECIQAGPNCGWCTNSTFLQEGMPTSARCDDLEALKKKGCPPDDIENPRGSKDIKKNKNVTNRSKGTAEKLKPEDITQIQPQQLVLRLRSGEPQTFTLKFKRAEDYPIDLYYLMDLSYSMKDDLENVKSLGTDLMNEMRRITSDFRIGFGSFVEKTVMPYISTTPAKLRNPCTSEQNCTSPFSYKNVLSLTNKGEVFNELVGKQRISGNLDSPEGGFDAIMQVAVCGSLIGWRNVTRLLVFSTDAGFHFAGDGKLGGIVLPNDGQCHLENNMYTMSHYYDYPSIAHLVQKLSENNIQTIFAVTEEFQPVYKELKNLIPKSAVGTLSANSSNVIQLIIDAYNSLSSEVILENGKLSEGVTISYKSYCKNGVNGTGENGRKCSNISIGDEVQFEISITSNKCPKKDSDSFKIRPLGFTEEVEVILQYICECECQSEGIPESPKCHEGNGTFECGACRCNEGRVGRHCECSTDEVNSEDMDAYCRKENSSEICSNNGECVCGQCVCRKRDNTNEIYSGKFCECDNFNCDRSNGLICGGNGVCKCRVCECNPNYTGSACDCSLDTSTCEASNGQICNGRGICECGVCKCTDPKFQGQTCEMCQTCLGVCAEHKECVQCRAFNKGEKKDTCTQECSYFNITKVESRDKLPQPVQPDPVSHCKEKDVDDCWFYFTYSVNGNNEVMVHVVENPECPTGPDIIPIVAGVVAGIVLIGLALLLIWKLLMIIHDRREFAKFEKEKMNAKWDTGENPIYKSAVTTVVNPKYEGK

As usually defined, the Ki is a dissociation constant, usually derived from enzyme kinetics or from competition with a known ligand. As a reminder, the IC50 is the concentration at which inhibition is half-maximal. For `CC(=O)N1CCN([C@H]2C[C@@H](CO[C@H]3CC[C@H](C(=O)O)CC3)N(C(=O)Cc3cc(Cl)c(NC(=O)c4csc5ccccc45)cc3F)C2)CC1` [Example 148, Trans-4-[1-[[4-[(benzo[b]thiophen-3-ylcarbonyl)amino]-5-chloro-2-fluorophenyl]acetyl]-(4S)-(4-acetylpiperazin-1-yl)-(2S)-pyrrolidinylmethoxy]cyclohexanecarboxylic acid], affinity was put at a Ki of 0.53 nM and the IC50 was found to be 2.8 nM.
The like results for `Cn1cc(C(=O)Nc2cc(Cl)c(CC(=O)N3C[C@@H](N4CCN(C(=O)C(C)(C)C)CC4)C[C@H]3CO[C@H]3CC[C@H](C(=O)O)CC3)cc2Cl)c2ccccc21` [Example 149, Trans-4-[1-[[2,5-dichloro-4-[(1-methyl-1H-indol-3-ylcarbonyl)amino]phenyl]acetyl]-(4S)-(4-pivaloylpiperazin-1-yl)-(2S)-pyrrolidinylmethoxy]cyclohexanecarboxylic acid] were, in that order, 1.7 nM and 24 nM.
The like results for `CS(=O)(=O)N1CCN([C@H]2C[C@@H](CO[C@H]3CC[C@H](C(=O)O)CC3)N(C(=O)Cc3cc(Cl)c(NC(=O)c4coc5ccccc45)cc3F)C2)CC1` [Example 150, Trans-4-[1-[[4-[(benzo[b]furan-3-ylcarbonyl)amino]-5-chloro-2-fluorophenyl]acetyl]-(4S)-(4-methanesulfonylpiperazin-1-yl)-(2S)-pyrrolidinylmethoxy]cyclohexanecarboxylic acid] were, in that order, 1.6 nM and 6.8 nM.
The like results for `CN(C)S(=O)(=O)N1CCN([C@H]2C[C@@H](CO[C@H]3CC[C@H](C(=O)O)CC3)N(C(=O)Cc3cc(Cl)c(NC(=O)c4cn(C)c5ccccc45)cc3Cl)C2)CC1` [Example 151, Trans-4-[1-[[2,5-dichloro-4-[(1-methyl-1H-indol-3-ylcarbonyl)amino]phenyl]acetyl]-(4S)-(4-N,N-dimethylsulfamoylpiperazin-1-yl)-(2S)-pyrrolidinylmethoxy]cyclohexanecarboxylic acid] were, in that order, 4.2 nM and 26 nM.
Turning to `CN1CCN([C@H]2C[C@@H](CO[C@H]3CC[C@H](C(=O)O)CC3)N(C(=O)Cc3cc(Cl)c(NC(=O)c4cn(C)c5ccccc45)cc3Cl)C2)CC1=O` [Example 152, Trans-4-[1-[[2,5-dichloro-4-[(1-methyl-1H-indol-3-ylcarbonyl)amino]phenyl]acetyl]-(4S)-(4-methyl-3-oxopiperazin-1-yl)-(2S)-pyrrolidinylmethoxy]cyclohexanecarboxylic acid], affinity was put at a Ki of 3.9 nM and the IC50 was determined as 11 nM.
The like results for `CN1CCN([C@H]2C[C@@H](CO[C@H]3CC[C@H](C(=O)O)CC3)N(C(=O)Cc3cc(Cl)c(NC(=O)c4csc5ccccc45)cc3Cl)C2)CC1=O` [Example 153, Trans-4-[1-[[4-[(benzo[b]thiophen-3-ylcarbonyl)amino]-2,5-dichlorophenyl]acetyl]-(4S)-(4-methyl-3-oxopiperazin-1-yl)-(2S)-pyrrolidinylmethoxy]cyclohexanecarboxylic acid] were, in that order, 1.5 nM and 9.3 nM.
As for `CCN1CCN([C@H]2C[C@@H](CO[C@H]3CC[C@H](C(=O)O)CC3)N(C(=O)Cc3cc(Cl)c(NC(=O)c4csc5ccccc45)cc3F)C2)CC1=O` [Example 154, Trans-4-[1-[[4-[(benzo[b]thiophen-3-ylcarbonyl)amino]-5-chloro-2-fluorophenyl]acetyl]-(4S)-(4-ethyl-3-oxopiperazin-1-yl)-(2S)-pyrrolidinylmethoxy]cyclohexanecarboxylic acid], the Ki stood at 0.92 nM and the IC50 worked out at 9.1 nM.
The like results for `CN1CCN([C@H]2C[C@@H](CO[C@H]3CC[C@H](C(=O)O)CC3)N(C(=O)Cc3cc(Cl)c(NC(=O)c4coc5ccccc45)cc3Cl)C2)CC1=O` [Example 155, Trans-4-[1-[[4-[(benzo[b]furan-3-ylcarbonyl)amino]-2,5-dichlorophenyl]acetyl]-(4S)-(4-methyl-3-oxopiperazin-1-yl)-(2S)-pyrrolidinylmethoxy]cyclohexanecarboxylic acid] were, in that order, 2.1 nM and 10 nM.
For `Cn1cc(C(=O)Nc2cc(F)c(CC(=O)N3C[C@@H](N4CCSCC4)C[C@H]3CO[C@H]3CC[C@H](C(=O)O)CC3)cc2Cl)c2ccccc21` [Example 158, Trans-4-[1-[[5-chloro-2-fluoro-4-[(1-methyl-1H-indol-3-ylcarbonyl)amino]phenyl]acetyl]-(4S)-(thiomorpholin-4-yl)-(2S)-pyrrolidinylmethoxy]cyclohexanecarboxylic acid], the Ki worked out at 4 nM and the IC50 was 16 nM.
On the same counts, the results for `O=C(Nc1cc(F)c(CC(=O)N2C[C@@H](N3CCSCC3)C[C@H]2CO[C@H]2CC[C@H](C(=O)O)CC2)cc1Cl)c1coc2ccccc12` [Example 159, Trans-4-[1-[[4-[(benzo[b]furan-3-ylcarbonyl)amino]-5-chloro-2-fluorophenyl]acetyl]-(4S)-(thiomorpholin-4-yl)-(2S)-pyrrolidinylmethoxy]cyclohexanecarboxylic acid] are 4.4 nM and 13 nM.
On the same counts, the results for `Cn1cc(C(=O)Nc2cc(F)c(CC(=O)N3C[C@@H](N4CCS(=O)(=O)CC4)C[C@H]3CO[C@H]3CC[C@H](C(=O)O)CC3)cc2Cl)c2ccccc21` [Example 160, Trans-4-[1-[[5-chloro-2-fluoro-4-[(1-methyl-1H-indol-3-ylcarbonyl)amino]phenyl]acetyl]-(4S)-(1,1-dioxo-1λ^6-thiomorpholin-4-yl)-(2S)-pyrrolidinylmethoxy]cyclohexanecarboxylic acid] are 2.4 nM and 9.9 nM.
Turning to `Cn1cc(C(=O)Nc2cc(Cl)c(CC(=O)N3C[C@@H](N4CC5CC4CO5)C[C@H]3CO[C@H]3CC[C@H](C(=O)O)CC3)cc2Cl)c2ccccc21` (stereo partly drawn) [Example 162, Trans-4-[1-[[2,5-dichloro-4-[1-methyl-1H-indol-3-ylcarbonylamino]phenyl]acetyl]-(4S)-[(1S,4S)-2-oxa-5-azabicyclo[2.2.1]heptan-5-yl]-(2S)-pyrrolidinylmethoxy]cyclohexanecarboxylic acid], the Ki is 6.5 nM and the IC50 was 49 nM.
The like results for `Cn1cc(C(=O)Nc2cc(F)c(CC(=O)N3C[C@@H](N4CC5CC4CO5)C[C@H]3CO[C@H]3CC[C@H](C(=O)O)CC3)cc2Cl)c2ccccc21` (stereo partly drawn) [Example 163, Trans-4-[1-[[5-chloro-2-fluoro-4-[(1-methyl-1H-indol-3-ylcarbonyl)amino]phenyl]acetyl]-(4S)-[(1S,4S)-2-oxa-5-azabicyclo[2.2.1]heptan-5-yl]-(2S)-pyrrolidinylmethoxy]cyclohexanecarboxylic acid] were, in that order, 6.4 nM and 36 nM.
On the same counts, the results for `O=C(Nc1cc(Cl)c(CC(=O)N2C[C@@H](N3CCCOCC3)C[C@H]2CO[C@H]2CC[C@H](C(=O)O)CC2)cc1Cl)c1csc2ccccc12` [Example 166, Trans-4-[1-[[4-[(benzo[b]thiophen-3-ylcarbonyl)amino]-2,5-dichlorophenyl]acetyl]-(4S)-([1,4]-oxazepan-4-yl)-(2S)-pyrrolidinylmethoxy]cyclohexanecarboxylic acid] are 1.7 nM and 8.2 nM.
On the same counts, the results for `O=C(Nc1cc(Cl)c(CC(=O)N2C[C@@H](N3CCCOCC3)C[C@H]2CO[C@H]2CC[C@H](C(=O)O)CC2)cc1Cl)c1coc2ccccc12` [Example 167, Trans-4-[1-[[4-[(benzo[b]furan-3-ylcarbonyl)amino]-2,5-dichlorophenyl]acetyl]-(4S)-([1,4]-oxazepan-4-yl)-(2S)-pyrrolidinylmethoxy]cyclohexanecarboxylic acid] are 4.4 nM and 19 nM.
For the compound `O=C(Nc1cc(F)c(CC(=O)N2C[C@@H](N3CCCOCC3)C[C@H]2CO[C@H]2CC[C@H](C(=O)O)CC2)cc1Cl)c1coc2ccccc12` [Example 168, Trans-4-[1-[[4-[(benzo[b]furan-3-ylcarbonyl)amino]-5-chloro-2-fluorophenyl]acetyl]-(4S)-([1,4]-oxazepan-4-yl)-(2-S)-pyrrolidinylmethoxy]cyclohexanecarboxylic acid], the Ki worked out at 2 nM and the IC50 is 9.4 nM.
On to `O=C(Nc1cc(Cl)c(CC(=O)N2C[C@@H](N3CCCN(C4CC4)CC3)C[C@H]2CO[C@H]2CC[C@H](C(=O)O)CC2)cc1Cl)c1csc2ccccc12` [Example 169, Trans-4-[1-[[4-[(benzo[b]thiophen-3-ylcarbonyl)amino]2,5-dichlorophenyl]acetyl]-(4S)-(4-cyclopropyl-[1,4]-diazepan-1-yl)-(2S)-pyrrolidinylmethoxy]cyclohexanecarboxylic acid], for which the affinity corresponds to a Ki of 1.1 nM and the IC50 came to 5.9 nM.
`CS(=O)(=O)N1CCCN([C@H]2C[C@@H](CO[C@H]3CC[C@H](C(=O)O)CC3)N(C(=O)Cc3cc(Cl)c(NC(=O)c4coc5ccccc45)cc3F)C2)CC1` [Example 170, Trans-4-[1-[[4-[(benzo[b]furan-3-ylcarbonyl)amino]-5-chloro-2-fluorophenyl]acetyl]-(4S)-(4-methanesulfonyl[1,4]-diazepan-1-yl)-(2S)-pyrrolidinylmethoxy]cyclohexanecarboxylic acid]: the inhibition constant Ki turned out to be 2.6 nM and the 50% inhibitory concentration (IC50) amounted to 11 nM.
